# What was measured:
# blackgrass = test: Test B pre/postemergence blackgrass; format: in vivo, Alopecurus myosuroides
# Outline: (§1)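 Herbicidal effect was estimated by eye on a ten-point control scale after plants spent twelve to sixteen days in a greenhouse following soil or foliar treatment. Foliar sprays targeted plants at one to four leaves; all doses were formulated in a non-phytotoxic solvent with surfactant.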
# velvetleaf = test: Test B pre/postemergence velvetleaf; format: in vivo, Abutilon theophrasti
# Outline: as §1
# giant foxtail = test: Test B pre/postemergence giant foxtail; format: in vivo, Setaria faberii
# Outline: as §1
# morningglory = test: Test B pre/postemergence morningglory; format: in vivo, Ipomoea hederacea
# Outline: as §1
# soybean = test: Test B pre/postemergence soybean; format: in vivo, Glycine max
# Outline: as §1
# corn = test: Test B pre/postemergence corn; format: in vivo, Zea mays
# Outline: as §1
# crabgrass = test: Test B pre/postemergence crabgrass; format: in vivo, Digitaria sanguinalis
# Outline: as §1
# wheat = test: Test B pre/postemergence wheat; format: in vivo, Triticum aestivum
# Outline: as §1
# sugar beet = test: Test B pre/postemergence sugar beet; format: in vivo, Beta vulgaris
# Outline: as §1
# cocklebur = test: Test B pre/postemergence cocklebur; format: in vivo, Xanthium strumarium
# Outline: as §1
# wild oat = test: Test B pre/postemergence wild oat; format: in vivo, Avena fatua
# Outline: as §1
# rape = test: Test B pre/postemergence rape; format: in vivo, Brassica napus
# Outline: as §1
# surinam grass = test: Test B pre/postemergence surinam grass; format: in vivo, Brachiaria decumbens
# Outline: as §1
# smallflower flatsedge = test: Test B flood test smallflower flatsedge; format: in vivo, Cyperus difformis; conditions: Pre-emergence
# Outline: (§2)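 Plants were grown to the 2-leaf stage before treatment with test chemical, then held in a greenhouse for twelve to sixteen days. Injury was visually rated against untreated controls on a 0–10 scale, where 0 is no effect and 10 is complete control.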
# purple nutsedge = test: Test B pre/postemergence purple nutsedge; format: in vivo, Cyperus rotundus
# Outline: as §1
# duck salad = test: Test B flood test duck salad; format: in vivo, Heteranthera limosa; conditions: Pre-emergence
# Outline: as §2
# [1] = Postemergence, Rate 1000 g/ha, scale 0 to 10 (0 no effect, 10 complete control)
# [2] = Preemergence, Rate 250 g/ha, scale of 0 to 10 where 0 is no effect and 10 is complete control
# [3] = Preemergence, Rate 500 g/ha, scale of 0 to 10 where 0 is no effect and 10 is complete control
# [4] = Rate 125 g/ha, Postemergence, scale of 0 to 10 where 0 is no effect and 10 is complete control
# [5] = Rate 250 g/ha, Postemergence, scale of 0 to 10 where 0 is no effect and 10 is complete control
# [6] = Rate 500 g/ha, Postemergence, scale 0 to 10, 0 no effect, 10 complete control
# [7] = Rate 1000 g/ha, Preemergence, scale 0 to 10 (0 no effect, 10 complete control)
# [8] = Rate 1000 g/ha, scale 0 to 10 (0 no effect, 10 complete control)
# [9] = Rate 125 g/ha, flood test species, scale 0 to 10 where 0 is no effect and 10 is complete control
# [10] = Rate 250 g/ha, flood-test species, scale 0 to 10, 0 is no effect, 10 is complete control
# [11] = Rate 500 g/ha, flood test species, scale 0 to 10 (0 no effect, 10 complete control)
smiles,measurement,setting,value
CCOC(=O)C(C)N(C(=O)n1oc(=O)n(C(C)C)c1=O)c1ccc(F)cc1 (stereo not shown) [Compound 302],Blackgrass plant response rating,blackgrass; [1],6
same,Blackgrass plant response rating (0 to 10 scale),"blackgrass; Preemergence, Rate 125 g/ha",0
same,Blackgrass plant response rating,blackgrass; [2],2
same,Blackgrass plant response rating,blackgrass; [3],5
same,Blackgrass plant response rating,blackgrass; [4],0
same,"Plant response rating, Blackgrass",blackgrass; [5],0
same,Blackgrass plant response rating,blackgrass; [6],2
same,"Plant response rating, Blackgrass",blackgrass; [7],6
same,Velvetleaf plant response rating,velvetleaf; [1],0
same,Velvetleaf plant response rating (0 to 10 scale),"velvetleaf; Preemergence, Rate 125 g/ha",0
same,Velvetleaf plant response rating,velvetleaf; [2],0
same,Velvetleaf plant response rating,velvetleaf; [3],0
same,Velvetleaf plant response rating,velvetleaf; [4],0
same,"Plant response rating, Velvetleaf",velvetleaf; [5],0
same,"Plant response rating, Velvetleaf",velvetleaf; [7],4
same,Giant foxtail plant response rating,giant foxtail; [1],7
same,Giant foxtail plant response rating (0 to 10 scale),"giant foxtail; Preemergence, Rate 125 g/ha",6
same,Giant foxtail plant response rating,giant foxtail; [2],7
same,Giant foxtail plant response rating,giant foxtail; [3],9
same,Giant foxtail plant response rating,giant foxtail; [4],1
same,"Plant response rating, Giant foxtail",giant foxtail; [5],2
same,"Plant response rating, Giant foxtail",giant foxtail; [7],10
same,Morningglory plant response rating,morningglory; [1],2
same,Morningglory plant response rating (0 to 10 scale),"morningglory; Preemergence, Rate 125 g/ha",0
same,Morningglory plant response rating,morningglory; [2],0
same,Morningglory plant response rating,morningglory; [3],0
same,Morningglory plant response rating,morningglory; [4],1
same,"Plant response rating, Morningglory",morningglory; [5],2
same,"Plant response rating, Morningglory",morningglory; [7],0
same,Soybean plant response rating,soybean; [1],5
same,Soybean plant response rating (0 to 10 scale),"soybean; Preemergence, Rate 125 g/ha",0
same,Soybean plant response rating,soybean; [2],0
same,Soybean plant response rating,soybean; [3],0
same,Soybean plant response rating,soybean; [4],2
same,"Plant response rating, Soybean",soybean; [5],3
same,"Plant response rating, Soybean",soybean; [7],0
same,Corn plant response rating,corn; [1],0
same,Corn plant response rating (0 to 10 scale),"corn; Preemergence, Rate 125 g/ha",0
same,Corn plant response rating,corn; [2],0
same,Corn plant response rating,corn; [3],0
same,Corn plant response rating,corn; [4],0
same,"Plant response rating, Corn",corn; [5],0
same,Corn plant response rating,corn; [6],0
same,"Plant response rating, Corn",corn; [7],0
same,Crabgrass plant response rating,crabgrass; [1],1
same,Crabgrass plant response rating (0 to 10 scale),"crabgrass; Preemergence, Rate 125 g/ha",0
same,Crabgrass plant response rating,crabgrass; [2],2
same,Crabgrass plant response rating,crabgrass; [3],7
same,Crabgrass plant response rating,crabgrass; [4],0
same,"Plant response rating, Crabgrass",crabgrass; [5],0
same,"Plant response rating, Crabgrass",crabgrass; [7],7
same,Wheat plant response rating,wheat; [1],1
same,Wheat plant response rating (0 to 10 scale),"wheat; Preemergence, Rate 125 g/ha",0
same,Wheat plant response rating,wheat; [2],0
same,Wheat plant response rating,wheat; [3],0
same,Wheat plant response rating,wheat; [4],0
same,"Plant response rating, Wheat",wheat; [5],0
same,"Plant response rating, Wheat",wheat; [7],0
same,Sugarbeets plant response rating,sugar beet; [1],2
same,Sugarbeets plant response rating (0 to 10 scale),"sugar beet; Preemergence, Rate 125 g/ha",0
same,Sugarbeets plant response rating,sugar beet; [2],2
same,Sugarbeets plant response rating,sugar beet; [3],2
same,Sugarbeets plant response rating,sugar beet; [4],0
same,"Plant response rating, Sugarbeets",sugar beet; [5],1
same,"Plant response rating, Sugarbeets",sugar beet; [7],4
same,Cocklebur plant response rating,cocklebur; [1],0
same,Cocklebur plant response rating (0 to 10 scale),"cocklebur; Preemergence, Rate 125 g/ha",0
same,Cocklebur plant response rating,cocklebur; [2],0
same,Cocklebur plant response rating,cocklebur; [3],0
same,Cocklebur plant response rating,cocklebur; [4],0
same,"Plant response rating, Cocklebur",cocklebur; [5],0
same,Cocklebur plant response rating,cocklebur; [6],0
same,"Plant response rating, Cocklebur",cocklebur; [7],0
same,Wild oats plant response rating,wild oat; [1],0
same,Wild oats plant response rating (0 to 10 scale),"wild oat; Preemergence, Rate 125 g/ha",0
same,Wild oats plant response rating,wild oat; [2],2
same,Wild oats plant response rating,wild oat; [3],5
same,Wild oats plant response rating,wild oat; [4],0
same,"Plant response rating, Wild oats",wild oat; [5],0
same,"Plant response rating, Wild oats",wild oat; [7],6
same,Rape plant response rating,rape; [1],0
same,Rape plant response rating (0 to 10 scale),"rape; Preemergence, Rate 125 g/ha",0
same,Rape plant response rating,rape; [2],0
same,Rape plant response rating,rape; [4],0
same,"Plant response rating, Rape",rape; [5],0
same,"Plant response rating, Rape",rape; [7],8
same,B. signalgrass plant response rating,surinam grass; [1],0
same,"B. signalgrass plant response rating (0 to 10 scale, 0 is no effect, 10 is complete control)","surinam grass; Preemergence, Rate 125 g/ha",0
same,B. signalgrass plant response rating,surinam grass; [2],0
same,B. signalgrass plant response rating,surinam grass; [3],3
same,B. signalgrass plant response rating,surinam grass; [4],0
same,"Plant response rating, B. signalgrass",surinam grass; [5],0
same,B. signalgrass plant response rating,surinam grass; [6],0
same,"Plant response rating, B. signalgrass",surinam grass; [7],7
same,S. Flatsedge plant response rating,smallflower flatsedge; [8],0
same,S. Flatsedge plant response rating,smallflower flatsedge; [9],0
same,S. Flatsedge plant response rating,smallflower flatsedge; [10],0
same,S. Flatsedge plant response rating,smallflower flatsedge; [11],0
same,Nutsedge plant response rating,purple nutsedge; [1],0
same,Nutsedge plant response rating (0 to 10 scale),"purple nutsedge; Preemergence, Rate 125 g/ha",0
same,Nutsedge plant response rating,purple nutsedge; [2],0
same,Nutsedge plant response rating,purple nutsedge; [3],0
same,Nutsedge plant response rating,purple nutsedge; [4],0
same,"Plant response rating, Nutsedge",purple nutsedge; [5],0
same,"Plant response rating, Nutsedge",purple nutsedge; [7],0
same,Ducksalad plant response rating,duck salad; [8],0
same,Ducksalad plant response rating,duck salad; [9],0
same,Ducksalad plant response rating,duck salad; [10],0
same,Ducksalad plant response rating,duck salad; [11],0
